Experimental data taken from patent publication US5756120A, “Antibiotic formulation and use for drug resistant infections” (NeXstar Pharmaceuticals, Inc., priority 1995, dated 1998).
Several values for one entry are separate records, joined by “and”; a condition that tells them apart may be missing. Equal entries are not always repeated.

Assays:
[1] = test system: M. tuberculosis drug susceptible strain H37RV; test: Intracellular activity against drug susceptible M. tuberculosis (H37RV) in human monocyte derived macrophages; type: cell-based; settings: for CFU (1 × 10^3): duplicate values
MAC (101, type 1) [2] = test: MAC infected beige mice, experiment 3 (higher doses), tissue cfu; type: in vivo, Beige mice (C57B1/6bg^j /bg^j); settings: 120 mg/kg i.v. three times/week for 21 days
Experimental: (§1) The testing of liposome encapsulated amikacin for the treatment of MAC was performed using a murine model. Beige mice (C57B1/6bg^j /bg^j) were infected with MAC (101, type 1). The mice were infected by injection of 1×10^7 Colony Forming Units (cfu) in the mouse tail vein (i.v.). Three experiments were performed. In the first experiment, 40, 80 and 120 milligrams of amikacin (liposomal and free) per kilogram of mouse body-weight was given i.v. daily for 5 days, beginning 7 days after infection. The animals were sacrificed 5 days after treatment was completed and the liver, lung and spleen tissue were plated. Quantitation of organisms in liver, spleen and lung tissue was performed. The cfu were determined by growth on Middlebrook 7h11 agar plates. Untreated and empty liposomes were used as controls.
(§2) Another experiment was carried out as above (also in two parts) except that the drug therapy was started 5 days after infection. The drug was given i.v. three times/week for 21 days. The mice were sacrificed 1-2 days after the treatment stopped. During the treatment period, a group of mice received 40 mg/Kg, 80 mg/kg, and 150 mg/kg of free amikacin and another group received 40 mg/kg, 80 mg/kg, and 160 mg/kg of liposomal amikacin. The lung tissues were not tested. Similar controls were used as above. The liposomes were prepared as described in Example 1. The average size of the liposomes was 66.5 nm or 79.6 nm (mean diameter). The concentration of the amikacin was either 15.98 mg/ml or 6.74 mg/ml. The total lipid was measure only the second part of the experiment and it was 27.0 mg/ml (drug to lipid ratio: 1:4.167).
A third experiment was carried out as in the second experiment except that the mice treated with the liposomal amikacin received 120 mg/kg, 240 mg/kg and 320 mg/kg doses and the mice treated with the free amikacin received only 120 mg/kg doses. The liposomes were prepared as in Example 2 where the average size of the liposomes were 81.8 nm (median diameter). The amikacin concentration was 32.02 mg/ml and the total lipid concentration was 91.5 mg/ml (drug to lipid ratio: 1:2.941).

MAC (101, type 1) [3] = test: MAC infected beige mice, experiment 2 (three times/week for 21 days), tissue cfu; type: in vivo, Beige mice (C57B1/6bg^j /bg^j)
Experimental: as §1
as §2, with “During the treatment period, a group of mice received 40 mg/Kg, 80 mg/kg, and 150 mg/kg of free amikacin and another group received 40 mg/kg, 80 mg/kg, and 160 mg/kg of liposomal amikacin.” left out

[4] = type: in vivo, mouse (C57B1/6); settings: 100 mg/kg i.v.; 6 hours
Experimental: Amidacin content was measured in mouse (C57B1/6, females 2-3 months old) plasma after injection (i.v.) of free amikacin or liposomal amikacin (100 mg/kg). Liposomal amikacin was prepared as described in Example 2. Blood samples were obtained at various time intervals. The samples were collected by removing 100 microliters of blood, retroorbitally, from nonanesthetized mice. The samples were collected in heparinized capillary pipets which were plugged with modeling clay. The samples were centrifuged at 3250 rpm (20 cm rotor) for 10 minutes. The samples were analyzed using a radioimmunoassay (Diagnostic Products). The liposomal amikacin formulation contained liposomes with an average size of 43.6 nm (median diameter). The amikacin concentration was 10.09 mg/ml and the total lipid concentration was 56.8 mg/ml (drug to lipid ratio 1:5.556).

Pseudomonas aeruginosa = test: Efficacy and toxicity in Pseudomonas infected mice (mortality); type: in vivo, CF-1 mice; settings: two doses
Experimental: The efficacy and toxicity of liposomal amikacin in Pseudomonas infected mice was tested. CF-1 mice were used (females, 6-8 weeks old). The mice were obtained from Jackson Labs. A clinical isolate of Pseudomonas aeruginosa was obtained on a Mueller Hinton/MacConkey blood agar plate. The organisms were transferred to a Mueller Hinton plate and grown for 24 hours. Colonies were transferred to saline and grown for 48 hours. The samples were frozen in saline containing 15% fetal calf serum at 1×10^8 organisms/ml (MacFarland Standard). The colonies were stored at -70° C. The colonies were thawed and grown in a Mueller Hinton plate for 24 hours. The bacteria were adjusted to 8×10^6 organisms/ml in saline containing talc (62.5 mg/ml) and 1 ml was injected intraperitoneal. A culture of inoculum on MH agar for 24 hours determined that approximately 7×10^6 cfu were delivered per mouse. Liposomal amikacin and empty liposomes were prepared as set out in Example 2. […] The lipid concentration was 95.31 mg/ml and the amikacin concentration was 23.54 mg/ml (0.25 drug/lipid ratio). The pH of the solution containing the formulation was 7.31. […] The concentration of the free amikacin solution was 23.54 mg/ml. The pH of the solution containing the liposomes was 7.33.
Mice were treated with 40 mg/kg (drug per body-weight), 80 mg/kg, 120 mg/kg and 240 mg/kg of liposomal amikacin. Mice were also treated with 40 mg/kg, 80 mg/kg, and 120 mg/kg of free amikacin. The drugs were administered intravenously in the caudal vein. Two doses were given; one at four hours after infection and one at twenty-four hours after infection.

[5] = 150 mg/kg; known in the art; cited from earlier work
MAC (101, type 1) [6] = test: MAC infected beige mice, experiment 1 (daily for 5 days), tissue cfu; type: in vivo, Beige mice (C57B1/6bg^j /bg^j)
Experimental: as §1
The liposomes were prepared as in Example 1. This experiment was performed in two identical parts. The liposomes in the first part were of an average size of 49.8 nm and the average size of the liposomes in the second part were 73.7 nm (mean diameter). The amikacin concentration was either 15.0 mg/ml or 13.21 mg/ml and the total lipid concentration was either 121 mg/ml or 55.7 mg/ml respectively (drug to lipid ratios: 0.123, 0.24). Free drug for all experiments was prepared in the same buffer that the liposomal formulations were contained in.

[7] = test system: Mycobacterium tuberculosis; settings: background statement; cited from earlier work
[8] = 40 mg/kg i.v. three times/week for 21 days
[9] = 80 mg/kg i.v. three times/week for 21 days
[10] = 120 mg/kg i.v. three times/week for 21 days
[11] = 120 mg/kg i.v. daily for 5 days

NCC[C@H](O)C(=O)N[C@@H]1C[C@H](N)[C@@H](O[C@H]2O[C@H](CN)[C@@H](O)[C@H](O)[C@H]2O)[C@H](O)[C@H]1O[C@H]1O[C@H](CO)[C@@H](O)[C@H](N)[C@H]1O [amikacin]
inhibition or killing of drug susceptible M. tuberculosis ([1]; 1 μg/ml): inhibited the growth of the bacteria
Avg. log CFU ([1]; 1 μg/ml, day 4): 4.7 log CFU
CFU (1 × 10^3) ([1]; 1 μg/ml, day 4): 50 1 × 10^3 CFU and 60 1 × 10^3 CFU
Avg. log CFU ([1]; 1 μg/ml, day 7): 5.9 log CFU
CFU (1 × 10^3) ([1]; 1 μg/ml, day 7): 900 1 × 10^3 CFU and 800 1 × 10^3 CFU
inhibition or killing of drug susceptible M. tuberculosis ([1]; 2 μg/ml): inhibition
Avg. log CFU ([1]; 2 μg/ml, day 4): 4.3 log CFU
CFU (1 × 10^3) ([1]; 2 μg/ml, day 4): 20 1 × 10^3 CFU
Avg. log CFU ([1]; 2 μg/ml, day 7): 4.7 log CFU
CFU (1 × 10^3) ([1]; 2 μg/ml, day 7): 40 1 × 10^3 CFU and 50 1 × 10^3 CFU
Avg. log CFU ([1]; 4 μg/ml, day 4): 3.7 log CFU
inhibition or killing of drug susceptible M. tuberculosis ([1]; 4 μg/ml, day 4): obtained killing at day 4
CFU (1 × 10^3) ([1]; 4 μg/ml, day 4): 4 1 × 10^3 CFU
Avg. log CFU ([1]; 4 μg/ml, day 7): 3.4 log CFU
CFU (1 × 10^3) ([1]; 4 μg/ml, day 7): 1.5 1 × 10^3 CFU and 3 1 × 10^3 CFU
Liver cfu/g (MAC (101, type 1) [2]): 6.10 × 10^7 cfu/g
Liver log cfu/g (MAC (101, type 1) [2]): 7.78 log cfu/g
Spleen cfu/g (MAC (101, type 1) [2]): 2.13 × 10^8 cfu/g
Spleen log cfu/g (MAC (101, type 1) [2]): 8.33 log cfu/g
Liver cfu/g (MAC (101, type 1) [3]; [8]): 1.09 × 10^8 cfu/g
Liver log cfu (MAC (101, type 1) [3]; [8]): 8.04 log cfu
Spleen cfu/g (MAC (101, type 1) [3]; [8]): 5.76 × 10^8 cfu/g
Spleen log cfu (MAC (101, type 1) [3]; [8]): 8.76 log cfu
Liver cfu/g (MAC (101, type 1) [3]; [9]): 3.67 × 10^7 cfu/g
Liver log cfu (MAC (101, type 1) [3]; [9]): 7.56 log cfu
Spleen cfu/g (MAC (101, type 1) [3]; [9]): 2.02 × 10^8 cfu/g
Spleen log cfu (MAC (101, type 1) [3]; [9]): 8.31 log cfu
Liver cfu/g (MAC (101, type 1) [3]; [10]): 3.15 × 10^7 cfu/g
Liver log cfu (MAC (101, type 1) [3]; [10]): 7.50 log cfu
Spleen cfu/g (MAC (101, type 1) [3]; [10]): 1.48 × 10^8 cfu/g
Spleen log cfu (MAC (101, type 1) [3]; [10]): 8.17 log cfu
Average Concentration (plasma amikacin) [4]: none detected
Mortality % (Pseudomonas aeruginosa; 40 mg/kg i.v.): 25%
Mortality (Pseudomonas aeruginosa; 40 mg/kg i.v., 24 hours post infection): 1/4
Mortality (Pseudomonas aeruginosa; 40 mg/kg i.v., 30 hours post infection): 1/4
Mortality (Pseudomonas aeruginosa; 40 mg/kg i.v., 48 hours post infection): 1/4
Mortality (Pseudomonas aeruginosa; 40 mg/kg i.v., 72 hours post infection): 1/4
Mortality % (Pseudomonas aeruginosa; 80 mg/kg i.v.): 0%
Mortality (Pseudomonas aeruginosa; 80 mg/kg i.v., 24 hours post infection): 0/6
Mortality (Pseudomonas aeruginosa; 80 mg/kg i.v., 30 hours post infection): 0/6
Mortality (Pseudomonas aeruginosa; 80 mg/kg i.v., 48 hours post infection): 0/6
Mortality (Pseudomonas aeruginosa; 80 mg/kg i.v., 72 hours post infection): 0/6
Mortality % (Pseudomonas aeruginosa; 120 mg/kg i.v.): 0%
Mortality (Pseudomonas aeruginosa; 120 mg/kg i.v., 24 hours post infection): 0/6
Mortality (Pseudomonas aeruginosa; 120 mg/kg i.v., 30 hours post infection): 0/6
Mortality (Pseudomonas aeruginosa; 120 mg/kg i.v., 48 hours post infection): 0/6
Mortality (Pseudomonas aeruginosa; 120 mg/kg i.v., 72 hours post infection): 0/6
lethality in mice [5]: will kill many of the mice injected
Liver cfu/g (MAC (101, type 1) [6]; 40 mg/kg i.v. daily for 5 days): 1.41 × 10^8 cfu/g
Liver log cfu/g (MAC (101, type 1) [6]; 40 mg/kg i.v. daily for 5 days): 8.15 log cfu/g
Spleen cfu/g (MAC (101, type 1) [6]; 40 mg/kg i.v. daily for 5 days): 4.08 × 10^8 cfu/g
Spleen log cfu/g (MAC (101, type 1) [6]; 40 mg/kg i.v. daily for 5 days): 8.61 log cfu/g
lung cfu/gram (MAC (101, type 1) [6]; 40 mg/kg i.v. daily for 5 days): 1.44×10^6 cfu/gram
lung log (MAC (101, type 1) [6]; 40 mg/kg i.v. daily for 5 days): 6.16 log
Liver cfu/g (MAC (101, type 1) [6]; 80 mg/kg i.v. daily for 5 days): 7.79 × 10^7 cfu/g
Liver log cfu/g (MAC (101, type 1) [6]; 80 mg/kg i.v. daily for 5 days): 7.89 log cfu/g
Spleen cfu/g (MAC (101, type 1) [6]; 80 mg/kg i.v. daily for 5 days): 4.82 × 10^8 cfu/g
Spleen log cfu/g (MAC (101, type 1) [6]; 80 mg/kg i.v. daily for 5 days): 8.68 log cfu/g
lung cfu/gram (MAC (101, type 1) [6]; 80 mg/kg i.v. daily for 5 days): 1.29×10^6 cfu/gram
lung log (MAC (101, type 1) [6]; 80 mg/kg i.v. daily for 5 days): 6.11 log
Liver cfu/g (MAC (101, type 1) [6]; [11]): 5.65 × 10^7 cfu/g
Liver log cfu/g (MAC (101, type 1) [6]; [11]): 7.75 log cfu/g
Spleen cfu/g (MAC (101, type 1) [6]; [11]): 3.46 × 10^8 cfu/g
Spleen log cfu/g (MAC (101, type 1) [6]; [11]): 8.54 log cfu/g
lung cfu/gram (MAC (101, type 1) [6]; [11]): 9.94×10^5 cfu/gram
lung log (MAC (101, type 1) [6]; [11]): 6.00 log
effectiveness against Mycobacterium tuberculosis [7]: effective
